Assay results as given in ChEMBL document CHEMBL1201862, “PubChem BioAssay data set” (2004).
Values belong to the compound of their own block, whether it stands above or below them. Activity calls are given as the source filed them.

Tests used:
NS3 = NS3 (Hepatitis C virus, UniProt A3EZJ3); experiment: PubChem AID 2173; parameters: species or system Hepacivirus hominis
Cytochrome P450 1A2 = target: T1, Cytochrome P450 1A2 (Homo sapiens, UniProt P05177);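 note: PubChem cytochrome P450 panel assay, CYP1A2 panel member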
T1 sequence (P05177 whole entry): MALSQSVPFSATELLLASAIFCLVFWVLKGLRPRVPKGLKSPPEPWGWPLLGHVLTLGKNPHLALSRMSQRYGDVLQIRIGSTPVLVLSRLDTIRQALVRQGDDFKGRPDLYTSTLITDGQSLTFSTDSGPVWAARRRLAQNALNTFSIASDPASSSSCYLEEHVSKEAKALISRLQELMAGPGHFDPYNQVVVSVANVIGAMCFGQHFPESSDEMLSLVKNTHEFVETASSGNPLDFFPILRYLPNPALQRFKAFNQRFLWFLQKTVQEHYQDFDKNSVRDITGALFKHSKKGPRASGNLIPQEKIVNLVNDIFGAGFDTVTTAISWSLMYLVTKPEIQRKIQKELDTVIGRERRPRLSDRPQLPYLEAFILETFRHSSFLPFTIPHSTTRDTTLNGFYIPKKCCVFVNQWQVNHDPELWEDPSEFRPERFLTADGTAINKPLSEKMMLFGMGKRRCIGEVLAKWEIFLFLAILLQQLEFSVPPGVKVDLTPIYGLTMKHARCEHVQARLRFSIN

Cytochrome P450 3A4 = Cytochrome P450 3A4 (Homo sapiens, UniProt P08684);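 note: CYP3A4 tested as one member of a cytochrome P450 panel screen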
Chain of Cytochrome P450 3A4 (P08684 whole entry): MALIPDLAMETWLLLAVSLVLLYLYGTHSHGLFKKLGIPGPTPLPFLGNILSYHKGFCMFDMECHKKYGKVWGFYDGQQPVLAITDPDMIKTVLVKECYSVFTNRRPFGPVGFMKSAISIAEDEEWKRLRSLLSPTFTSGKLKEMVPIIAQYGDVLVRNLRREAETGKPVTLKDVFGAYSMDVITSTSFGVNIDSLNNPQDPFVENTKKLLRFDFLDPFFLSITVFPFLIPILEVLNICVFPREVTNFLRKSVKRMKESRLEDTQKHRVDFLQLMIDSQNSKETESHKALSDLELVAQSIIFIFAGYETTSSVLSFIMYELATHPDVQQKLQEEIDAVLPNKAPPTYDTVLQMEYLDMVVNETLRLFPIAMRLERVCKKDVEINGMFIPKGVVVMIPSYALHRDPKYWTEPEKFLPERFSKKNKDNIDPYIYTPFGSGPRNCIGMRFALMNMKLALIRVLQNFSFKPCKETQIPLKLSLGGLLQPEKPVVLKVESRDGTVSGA

[1] = target: Serine/threonine-protein phosphatase PP1-alpha catalytic subunit (Homo sapiens, UniProt P62136); experiment: PP1 phosphatase inhibitors, dose response, biochemical, fluorescence (AID 2403);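 note: phosphatase turnover of OMFP into fluorescent 3-O-methylfluorescein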
Chain of Serine/threonine-protein phosphatase PP1-alpha catalytic subunit (P62136 whole entry): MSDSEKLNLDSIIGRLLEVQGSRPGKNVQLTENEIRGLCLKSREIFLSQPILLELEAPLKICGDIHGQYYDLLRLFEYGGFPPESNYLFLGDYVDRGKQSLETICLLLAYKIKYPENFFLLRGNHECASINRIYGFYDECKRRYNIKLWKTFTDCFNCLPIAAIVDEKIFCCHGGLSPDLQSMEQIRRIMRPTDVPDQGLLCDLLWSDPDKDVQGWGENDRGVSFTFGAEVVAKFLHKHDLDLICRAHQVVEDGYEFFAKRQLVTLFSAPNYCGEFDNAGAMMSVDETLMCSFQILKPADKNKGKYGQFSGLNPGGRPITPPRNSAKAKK

[2] = target: Serine/threonine-protein phosphatase (Homo sapiens, UniProt Q9BPW0); experiment: Counterscreen for inhibitors of PP1: fluorescence-based biochemical high throughput dose response assay to identify inhibitors of Protein Phosphatase 5 (PP5). [Related pubchem assays: 2034 (Summary (PP5 inhibitors)), 1987 (PP5 inhibitors in singlate), 2235 (PP1 inhibitors in singlate)]
Chain of Serine/threonine-protein phosphatase (Q9BPW0 whole entry): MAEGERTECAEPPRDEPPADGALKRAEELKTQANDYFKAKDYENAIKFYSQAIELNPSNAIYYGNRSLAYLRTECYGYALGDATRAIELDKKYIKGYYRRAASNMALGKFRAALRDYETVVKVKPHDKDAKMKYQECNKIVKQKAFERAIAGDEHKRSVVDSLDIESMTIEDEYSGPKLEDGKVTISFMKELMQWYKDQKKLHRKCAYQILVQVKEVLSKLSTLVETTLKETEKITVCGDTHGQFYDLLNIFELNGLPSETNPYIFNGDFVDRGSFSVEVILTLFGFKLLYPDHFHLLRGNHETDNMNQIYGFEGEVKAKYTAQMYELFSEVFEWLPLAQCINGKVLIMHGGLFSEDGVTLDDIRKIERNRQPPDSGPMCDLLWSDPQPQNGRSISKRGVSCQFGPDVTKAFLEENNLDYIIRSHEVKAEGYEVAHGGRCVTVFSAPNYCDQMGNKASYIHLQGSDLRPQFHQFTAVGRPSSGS

[3] = target: T2, Neuropeptides B/W receptor type 1 (Homo sapiens, UniProt P48145); experiment: Fluorescence-based dose response cell-based high throughput screening assay to identify antagonists of the G-protein coupled receptor 7 (GPR7). [Related pubchem assays: 1952 (Screening assay (GPR7 antagonists).), 1880 (Summary AID.)]; format: functional
T2 sequence (P48145 whole entry): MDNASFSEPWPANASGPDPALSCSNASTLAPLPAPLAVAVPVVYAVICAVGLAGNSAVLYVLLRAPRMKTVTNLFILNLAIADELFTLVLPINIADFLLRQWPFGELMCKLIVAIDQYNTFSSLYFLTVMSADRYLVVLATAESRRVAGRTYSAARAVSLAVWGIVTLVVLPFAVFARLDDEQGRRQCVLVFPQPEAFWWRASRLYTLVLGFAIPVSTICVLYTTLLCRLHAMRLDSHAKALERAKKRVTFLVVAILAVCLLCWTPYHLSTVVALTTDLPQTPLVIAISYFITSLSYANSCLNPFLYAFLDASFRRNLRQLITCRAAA

[4] = target: Melanin-concentrating hormone receptor 1 (Homo sapiens, UniProt Q99705); experiment: Fluorescence-based counterscreen for antagonists of the G-protein coupled receptor 7 (GPR7): cell-based high throughput dose response assay to identify antagonists of the melanin-concentrating hormone receptor 1 (MCHR1).; format: functional
Chain of Melanin-concentrating hormone receptor 1 (Q99705 whole entry): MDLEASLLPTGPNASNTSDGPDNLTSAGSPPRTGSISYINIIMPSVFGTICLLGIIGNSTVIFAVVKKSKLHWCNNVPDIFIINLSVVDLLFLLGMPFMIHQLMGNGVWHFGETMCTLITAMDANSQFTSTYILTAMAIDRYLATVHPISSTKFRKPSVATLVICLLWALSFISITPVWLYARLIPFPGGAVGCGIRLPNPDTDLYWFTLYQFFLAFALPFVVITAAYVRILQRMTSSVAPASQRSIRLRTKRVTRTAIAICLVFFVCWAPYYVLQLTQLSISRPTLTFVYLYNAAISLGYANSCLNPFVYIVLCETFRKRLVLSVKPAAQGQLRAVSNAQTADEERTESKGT

[5] = target: T3, Eukaryotic translation initiation factor 2-alpha kinase 3 (Homo sapiens, UniProt Q9NZJ5); experiment: Dose response cell-based high-throughput screening assay to measure PERK inhibition. [Related pubchem assays: 1416 ]; format: functional
T3 sequence (Q9NZJ5 whole entry): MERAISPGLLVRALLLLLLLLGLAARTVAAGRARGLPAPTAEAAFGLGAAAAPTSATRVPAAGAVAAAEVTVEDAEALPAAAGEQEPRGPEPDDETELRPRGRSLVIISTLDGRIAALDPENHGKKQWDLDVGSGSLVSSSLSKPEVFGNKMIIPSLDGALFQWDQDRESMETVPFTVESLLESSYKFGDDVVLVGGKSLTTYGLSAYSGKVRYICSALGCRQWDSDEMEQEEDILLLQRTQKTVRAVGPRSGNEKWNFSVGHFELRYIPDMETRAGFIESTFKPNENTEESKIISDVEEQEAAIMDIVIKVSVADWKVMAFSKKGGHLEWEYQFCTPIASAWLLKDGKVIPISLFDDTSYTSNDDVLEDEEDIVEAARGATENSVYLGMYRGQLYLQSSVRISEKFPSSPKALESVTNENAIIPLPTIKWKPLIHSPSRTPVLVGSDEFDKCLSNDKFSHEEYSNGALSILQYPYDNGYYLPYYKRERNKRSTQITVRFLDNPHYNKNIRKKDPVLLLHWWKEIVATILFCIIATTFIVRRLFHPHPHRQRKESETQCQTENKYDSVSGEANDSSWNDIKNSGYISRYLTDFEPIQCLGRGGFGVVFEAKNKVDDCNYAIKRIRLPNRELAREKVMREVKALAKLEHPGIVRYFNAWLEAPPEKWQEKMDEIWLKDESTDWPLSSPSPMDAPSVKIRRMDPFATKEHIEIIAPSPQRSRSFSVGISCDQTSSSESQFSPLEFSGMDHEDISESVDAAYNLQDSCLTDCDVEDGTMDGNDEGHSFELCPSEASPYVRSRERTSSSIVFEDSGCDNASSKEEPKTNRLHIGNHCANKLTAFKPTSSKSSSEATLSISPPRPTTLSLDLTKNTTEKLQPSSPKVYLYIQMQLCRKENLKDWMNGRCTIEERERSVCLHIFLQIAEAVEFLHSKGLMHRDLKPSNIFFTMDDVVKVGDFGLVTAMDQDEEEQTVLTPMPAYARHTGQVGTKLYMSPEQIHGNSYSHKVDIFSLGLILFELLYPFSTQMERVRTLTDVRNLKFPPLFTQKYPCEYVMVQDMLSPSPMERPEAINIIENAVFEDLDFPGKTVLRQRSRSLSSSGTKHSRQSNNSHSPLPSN

[6] = target: T3, Eukaryotic translation initiation factor 2-alpha kinase 3; experiment: Counterscreen assay for PERK inhibitors: Dose response cell-based high throughput screening assay to measure inhibition of PERK at 6 hours. [Related pubchem assays: 1522, 1416 ]; format: functional
[7] = target: T4, Alkaline phosphatase, tissue-nonspecific isozyme (Homo sapiens, UniProt P05186)
T4 sequence (P05186 whole entry): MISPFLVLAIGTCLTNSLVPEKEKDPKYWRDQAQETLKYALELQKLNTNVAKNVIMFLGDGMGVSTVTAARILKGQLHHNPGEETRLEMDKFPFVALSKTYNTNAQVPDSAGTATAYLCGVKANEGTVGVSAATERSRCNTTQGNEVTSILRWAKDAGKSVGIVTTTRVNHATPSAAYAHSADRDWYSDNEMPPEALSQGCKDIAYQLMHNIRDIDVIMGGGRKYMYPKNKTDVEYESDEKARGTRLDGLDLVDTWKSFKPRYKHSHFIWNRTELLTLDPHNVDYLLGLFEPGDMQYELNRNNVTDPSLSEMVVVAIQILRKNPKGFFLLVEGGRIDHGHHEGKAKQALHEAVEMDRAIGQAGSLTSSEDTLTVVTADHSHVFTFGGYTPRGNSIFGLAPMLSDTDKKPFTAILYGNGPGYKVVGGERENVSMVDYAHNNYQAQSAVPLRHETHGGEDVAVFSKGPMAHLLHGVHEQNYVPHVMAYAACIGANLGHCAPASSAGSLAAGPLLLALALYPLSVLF

[8] = target: T5, Probable nicotinate-nucleotide adenylyltransferase (Staphylococcus aureus (strain N315), UniProt P65502); format: functional, Staphylococcus aureus subsp. aureus N315;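 for IC50 Mean: confirmatory dose-response retesting of NadD inhibitor hits first found in an ultra-high-throughput screen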
[9] = target: T5, Probable nicotinate-nucleotide adenylyltransferase; format: functional, Staphylococcus aureus subsp. aureus N315; settings: read-out: IC50_Mean
[10] = target: Luciferin 4-monooxygenase (Photinus pyralis, UniProt P08659); experiment: Counter Screen for Luciferase-based Assay Positives. [Related pubchem assays: 620, 618, 411 ]
Chain of Luciferin 4-monooxygenase (P08659 whole entry): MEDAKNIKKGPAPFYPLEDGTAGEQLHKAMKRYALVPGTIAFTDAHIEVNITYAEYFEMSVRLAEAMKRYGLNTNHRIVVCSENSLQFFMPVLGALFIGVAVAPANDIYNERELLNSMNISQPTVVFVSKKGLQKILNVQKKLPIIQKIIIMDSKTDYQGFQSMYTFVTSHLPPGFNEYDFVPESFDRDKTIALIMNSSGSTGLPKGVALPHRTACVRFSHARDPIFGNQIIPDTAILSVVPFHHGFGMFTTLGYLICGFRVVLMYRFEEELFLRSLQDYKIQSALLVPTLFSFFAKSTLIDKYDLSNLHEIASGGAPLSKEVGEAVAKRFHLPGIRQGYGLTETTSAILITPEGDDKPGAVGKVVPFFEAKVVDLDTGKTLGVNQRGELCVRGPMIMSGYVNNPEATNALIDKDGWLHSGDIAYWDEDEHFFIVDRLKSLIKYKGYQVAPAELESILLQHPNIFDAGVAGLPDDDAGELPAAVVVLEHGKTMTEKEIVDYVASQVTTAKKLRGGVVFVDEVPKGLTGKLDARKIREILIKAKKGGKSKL

HT-1080 = experiment: cytotoxicity in HT1080 fibrosarcoma cells, cell-based, fluorescence readout (AID 620); format: functional; settings: Homo sapiens
[11] = target: Mothers against decapentaplegic homolog 3 (Homo sapiens, UniProt P84022); experiment: Smad3 binding inhibitors, lysate ELISA, dose response, cell lysate, secondary confirmation, chemiluminescent ELISA, HEK293 lysate (AID 1058); format: functional
Chain of Mothers against decapentaplegic homolog 3 (P84022 whole entry): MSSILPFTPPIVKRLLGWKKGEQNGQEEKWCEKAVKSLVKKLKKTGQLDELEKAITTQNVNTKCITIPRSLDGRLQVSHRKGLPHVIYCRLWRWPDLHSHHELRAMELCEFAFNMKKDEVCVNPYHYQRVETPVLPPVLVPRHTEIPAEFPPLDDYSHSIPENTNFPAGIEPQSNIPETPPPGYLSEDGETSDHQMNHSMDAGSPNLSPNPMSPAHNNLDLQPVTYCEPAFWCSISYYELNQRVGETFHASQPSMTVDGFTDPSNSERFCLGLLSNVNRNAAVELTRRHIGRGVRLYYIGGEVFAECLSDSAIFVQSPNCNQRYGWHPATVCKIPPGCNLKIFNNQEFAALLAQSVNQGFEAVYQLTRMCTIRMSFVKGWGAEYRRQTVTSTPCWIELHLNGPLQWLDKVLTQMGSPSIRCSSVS

Chain of NS3 (A3EZJ3 whole entry): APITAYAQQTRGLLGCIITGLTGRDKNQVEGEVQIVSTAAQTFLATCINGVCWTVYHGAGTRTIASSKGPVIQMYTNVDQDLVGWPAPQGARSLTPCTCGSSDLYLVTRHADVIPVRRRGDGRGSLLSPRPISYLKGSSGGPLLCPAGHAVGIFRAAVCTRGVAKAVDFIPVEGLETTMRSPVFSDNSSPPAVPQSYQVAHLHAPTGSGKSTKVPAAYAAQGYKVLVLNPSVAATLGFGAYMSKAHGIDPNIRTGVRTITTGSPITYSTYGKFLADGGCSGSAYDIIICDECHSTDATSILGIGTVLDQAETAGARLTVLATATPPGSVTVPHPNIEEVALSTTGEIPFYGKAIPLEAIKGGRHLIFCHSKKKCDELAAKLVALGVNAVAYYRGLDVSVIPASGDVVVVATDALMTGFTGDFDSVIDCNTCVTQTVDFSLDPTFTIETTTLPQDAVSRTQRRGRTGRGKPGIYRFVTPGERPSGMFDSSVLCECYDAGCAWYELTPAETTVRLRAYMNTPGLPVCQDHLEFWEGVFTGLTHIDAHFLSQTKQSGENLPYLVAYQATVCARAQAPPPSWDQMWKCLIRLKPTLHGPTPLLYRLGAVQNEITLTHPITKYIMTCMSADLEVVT

Compound: O=C(O)c1cc(-c2ccc(Cl)c(Cl)c2)n(-c2ccc(F)cc2)n1
IC50 [1]: 8.13 µM (active)
IC50 [2]: > 67 µM (not active)

Compound: Cc1ccnc(NS(=O)(=O)c2cc(C(F)(F)F)ccc2Cl)c1
EC50 [5]: > 55.7 µM (not active)
EC50 [6]: > 55.7 µM (not active)

Compound: COCc1cc(O)n2nc(-c3ccsc3-n3c(C)ccc3C)cc2n1
EC50 [7]: > 100 µM (not active)
IC50 [8]: 13.3 µM (active)
IC50 [9]: 51.3 µM (active)

Compound: C=CCNc1ncnc2c1cnn2-c1ccc(OC)cc1
EC50 [10]: 0.33 µM (active)
EC50 (HT-1080): > 50 µM (not active)

The remaining lines, values ahead:

IC50 (NS3): 14.2 µM (not active)
AC50 (Cytochrome P450 1A2): 15.8 µM (inconclusive)
AC50 (Cytochrome P450 3A4): 20 µM (inconclusive)
Compound: Cc1ccc(C)c(N2CCN(C(=O)c3ccc4nc(-c5ccco5)c(-c5ccco5)nc4c3)CC2)c1

IC50 [3]: > 43.8 µM (not active)
IC50 [4]: > 43.8 µM (not active)
Compound: O=C(CSc1nnc(Cc2ccccc2)n1Cc1ccco1)NC1CCCC1

IC50 [11]: > 50 µM (not active)
Compound: COC(=O)c1ccccc1C1c2ccc(O)c(O)c2OC2=C(O)C(=O)C=CC21 (stereo not given)
